We go through 19 compounds from patent US8791266B2, “Thyroid hormone β receptor agonist” (Mitsubishi Tanabe Pharma Corporation, priority 2009, dated 2014).

The target of experiment [1] is T1, Human Thyroid Hormone Receptor β1 (TRβ1) (Homo sapiens, UniProt P10828).
T1 construct: expressed in transfected cells; host or cells: 293T cells
T1 sequence (P10828 1-461): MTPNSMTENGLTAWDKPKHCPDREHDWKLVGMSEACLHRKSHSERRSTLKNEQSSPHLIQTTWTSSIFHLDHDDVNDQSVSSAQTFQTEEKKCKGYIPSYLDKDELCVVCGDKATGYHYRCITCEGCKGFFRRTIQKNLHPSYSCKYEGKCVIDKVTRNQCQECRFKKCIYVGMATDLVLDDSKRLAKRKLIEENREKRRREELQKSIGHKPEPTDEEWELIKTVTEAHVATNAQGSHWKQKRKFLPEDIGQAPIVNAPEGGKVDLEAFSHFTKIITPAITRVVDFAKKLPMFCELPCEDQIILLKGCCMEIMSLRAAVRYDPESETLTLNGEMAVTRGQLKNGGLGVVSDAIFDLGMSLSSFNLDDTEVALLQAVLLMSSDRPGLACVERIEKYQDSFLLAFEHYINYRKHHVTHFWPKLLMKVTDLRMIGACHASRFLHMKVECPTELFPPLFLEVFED
Briefly: Transcription activation test of human thyroid hormone receptor β1 (luciferase reporter in 293T cells). It counts as cell-based. As to conditions: EC50 of transcription activation on TRβ1, 293T cells, luciferase activity after 24 hr; read-out: TRβ. The text has this: (§1) Transcription Activation Test of Human Thyroid Hormone Receptors α1 (TRα1) and β1 (TRβ1)
(§2) pcDNA3.1 vector (manufactured by Invitrogen) that expresses TRα1 or β1 cloned from human liver-derived cells, and firefly luciferase expression vector pDR4-LuC (manufactured by Stratagene) having a thyroid hormone response sequence to be a reporter were transfected into 293T cells cultured in Dulbecco's modified Eagle medium (DMEM) containing 10% of activated carbon/dextran-treated fetal bovine serum (FBS) by using Lipofectamine2000 (manufactured by Invitrogen). After 16 hr, the cells were plated again in a 96 well plate, and the medium was exchanged with DMEM containing 0.1% activated carbon/dextran-treated FBS. After 3 more hr, a compound diluted with dimethyl sulfoxide solution was added, and the luciferase activity after 24 hr was measured.
(§3) As a positive control, 3,3′,5-triiodo-L-thyronine (T3), which is a biological ligand, was used. The transcription activation action of the compound on TRα1 and TRβ1 was shown by each EC50 value and the maximum luciferase activity value relative to the maximum luciferase activity value of T3 as 100.
Background: A reporter such as luciferase makes a cellular process visible.

The target in experiment [2] is T2, Human Thyroid Hormone Receptor α1 (TRα1) (Homo sapiens, UniProt P10827).
T2 construct: expressed in transfected cells; host or cells: 293T cells
T2 sequence (P10827 1-410 isoform P10827-2): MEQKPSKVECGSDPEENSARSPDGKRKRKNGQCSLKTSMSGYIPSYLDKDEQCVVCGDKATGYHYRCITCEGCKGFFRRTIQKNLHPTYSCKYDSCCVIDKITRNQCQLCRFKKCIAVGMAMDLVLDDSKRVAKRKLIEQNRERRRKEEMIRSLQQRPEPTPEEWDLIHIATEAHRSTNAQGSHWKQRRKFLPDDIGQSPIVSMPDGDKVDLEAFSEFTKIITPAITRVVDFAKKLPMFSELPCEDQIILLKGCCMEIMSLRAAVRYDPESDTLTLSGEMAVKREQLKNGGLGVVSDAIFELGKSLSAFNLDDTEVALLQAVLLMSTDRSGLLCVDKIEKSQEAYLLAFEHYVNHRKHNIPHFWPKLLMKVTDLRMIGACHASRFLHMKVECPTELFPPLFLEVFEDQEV
As to the kind of experiment: Transcription activation test of human thyroid hormone receptor α1 (luciferase reporter in 293T cells). As to conditions: ratio TRα/TRβ of the transcription activation EC50 values. It counts as cell-based.
Excerpt: as §1, §2, §3

Turning to `Cc1cc(OC(C)C(=O)O)cc(C)c1Cc1ccc(O)c(C2CCCCC2)n1` (centres unmarked) [Example 14, 2-{4-[(6-cyclohexyl-5-hydroxypyridin-2-yl)methyl]-3,5-dimethylphenoxy}propanoic acid], the EC50 in experiment [1] is 10 nM. Besides, in experiment [2], the “selectivity (TRα/TRβ)” value is “B (2<(TRα/TRβ)<5)”.
Regarding `Cc1cc(CC(=O)O)c(C)c(C)c1Cc1ccc(O)c(C2CCCCC2)n1` [Example 41, {4-[(6-cyclohexyl-5-hydroxypyridin-2-yl)methyl]-2,3,5-trimethylphenyl}acetic acid], the EC50 in experiment [1] came out at 4 nM. Moreover, in experiment [2], the “selectivity (TRα/TRβ)” value is “B (2<(TRα/TRβ)<5)”.
Consider `Cc1cc(NC(=O)CC(=O)O)cc(C)c1Cc1ccc(O)c(-c2ccccc2)n1` [Example 22, 3-({4-[(5-hydroxy-6-phenylpyridin-2-yl)methyl]-3,5-dimethylphenyl}amino)-3-oxopropanoic acid], for which, in experiment [1], the EC50 stood at 200 nM. Also, in experiment [2], the “selectivity (TRα/TRβ)” value was “A (5<(TRα/TRβ))”.
As to `Cc1cc(CC(F)C(=O)O)c(C)c(C)c1Cc1ccc(O)c(C2CCCCC2)n1` (centres unmarked) [Example 136, 3-{4-[(6-cyclohexyl-5-hydroxypyridin-2-yl)methyl]-2,3,5-trimethylphenyl}-2-fluoropropanoic acid], the EC50 in experiment [1] worked out at 1 nM. Besides, the “selectivity (TRα/TRβ)” value in experiment [2] was “C (2>(TRα/TRβ))”.
Turning to `Cc1cc(OCC(=O)O)c(C)c(C)c1Cc1ccc(O)c(C(C)C)n1` [Example 4, {4-[(5-hydroxy-6-isopropylpyridin-2-yl)methyl]-2,3,5-trimethylphenoxy}acetic acid], in experiment [1], the EC50 came out at 0.5 nM. Besides, the “selectivity (TRα/TRβ)” value in experiment [2] is “B (2<(TRα/TRβ)<5)”.
`Cc1cc(OC(C)(C)C(=O)O)c(C)c(C)c1Cc1ccc(O)c(C2CCCCC2)n1` [Example 17, 2-{4-[(6-cyclohexyl-5-hydroxypyridin-2-yl)methyl]-2,3,5-trimethylphenoxy}-2-methylpropanoic acid]: the EC50 in experiment [1] was 20 nM. The “selectivity (TRα/TRβ)” value in experiment [2] is reported as “B (2<(TRα/TRβ)<5)”.
On to `Cc1cc(-c2cc(O)no2)c(C)c(C)c1Cc1ccc(O)c(C(C)C)n1` [Example 81, 6-[4-(3-hydroxyisoxazol-5-yl)-2,3,6-trimethylbenzyl]-2-isopropylpyridin-3-ol], for which the EC50 in experiment [1] was found to be 0.1 nM. Besides, the “selectivity (TRα/TRβ)” value in experiment [2] is “B (2<(TRα/TRβ)<5)”.
As for `Cc1cc(OCC(=O)O)c(C)c(C)c1Cc1ccc(O)c(C2CCCO2)n1` (centres unmarked) [Example 6, (4-{[5-hydroxy-6-(tetrahydrofuran-2-yl)pyridin-2-yl]methyl}-2,3,5-trimethylphenoxy)acetic acid], the EC50 in experiment [1] worked out at 50 nM. The “selectivity (TRα/TRβ)” value in experiment [2] is on record as “B (2<(TRα/TRβ)<5)”.
Take `Cc1cc(NC(=O)CC(=O)O)c(F)c(C)c1Cc1ccc(O)c(C2CCCCCC2)n1` [Example 131, 3-({4-[(6-cycloheptyl-5-hydroxypyridin-2-yl)methyl]-2-fluoro-3,5-dimethylphenyl}amino)-3-oxopropanoic acid]: the EC50 in experiment [1] is 4 nM. For the same compound, in experiment [2], the “selectivity (TRα/TRβ)” value is “A (5<(TRα/TRβ))”.
The like results for `Cc1cc(OCc2noc(=O)[nH]2)cc(C)c1Cc1ccc(O)c(-c2ccc3c(c2)CCCC3)n1` [Example 30, 3-[(4-{[5-hydroxy-6-(5,6,7,8-tetrahydronaphthalen-2-yl)pyridin-2-yl]methyl}-3,5-dimethylphenoxy)methyl]-1,2,4-oxadiazol-5(4H)-one] were, in that order, 2 nM and “A (5<(TRα/TRβ))”.
As for `Cc1cc(OCc2noc(=O)[nH]2)c(F)c(C)c1Cc1ccc(O)c(N2CCCCC2)n1` [Example 118, 3-({2-fluoro-4-[(5-hydroxy-6-piperidin-1-ylpyridin-2-yl)methyl]-3,5-dimethylphenoxy}methyl)-1,2,4-oxadiazol-5(4H)-one], in experiment [1], the EC50 stood at 20 nM. Further, the “selectivity (TRα/TRβ)” value in experiment [2] is “B (2<(TRα/TRβ)<5)”.
For `Cc1cc(OCC(=O)O)cc(C)c1Cc1ccc(O)c(C(C)C)n1` [Example 1, {4-[(5-hydroxy-6-isopropylpyridin-2-yl)methyl]-3,5-dimethylphenoxy}acetic acid] the same measures were 3 nM and “B (2<(TRα/TRβ)<5)”.
For `Cc1cc(-n2nc(C#N)c(=O)[nH]c2=O)cc(C)c1Cc1ccc(O)c(-c2ccccc2)n1` [Example 216, 2-{4-[(5-hydroxy-6-phenylpyridin-2-yl)methyl]-3,5-dimethylphenyl}-3,5-dioxo-2,3,4,5-tetrahydro-1,2,4-triazine-6-carbonitrile] the same measures were 4 nM and “A (5<(TRα/TRβ))”.
The like results for `Cc1cc(OCC(=O)O)c(C)c(C)c1Cc1cc(F)c(O)c(C2CCCCC2)n1` [Example 65, {4-[(6-cyclohexyl-4-fluoro-5-hydroxypyridin-2-yl)methyl]-2,3,5-trimethylphenoxy}acetic acid] were, in that order, 10 nM and “A (5<(TRα/TRβ))”.
With `Cc1cc(OCc2noc(=O)[nH]2)cc(C)c1Cc1ccc(O)c(C2CCCCC2)n1` [Example 28, 3-({4-[(6-cyclohexyl-5-hydroxypyridin-2-yl)methyl]-3,5-dimethylphenoxy}methyl)-1,2,4-oxadiazol-5(4H)-one], the EC50 in experiment [1] worked out at 0.2 nM. The “selectivity (TRα/TRβ)” value in experiment [2] is listed as “C (2>(TRα/TRβ))”.
For `Cc1cc(OCc2noc(=O)[nH]2)c(C)c(C)c1Cc1ccc(O)c(C2CCCO2)n1` (centres unmarked) [Example 33, 3-[(4-{[5-hydroxy-6-(tetrahydrofuran-2-yl)pyridin-2-yl]methyl}-2,3,5-trimethylphenoxy)methyl]-1,2,4-oxadiazol-5(4H)-one] the same measures were 8 nM and “B (2<(TRα/TRβ)<5)”.
For `Cc1cc(OCC(=O)O)c(C)c(C)c1Cc1ccc(O)c(-c2cccc(Cl)c2)n1` [Example 173, (4-{[6-(3-chlorophenyl)-5-hydroxypyridin-2-yl]methyl}-2,3,5-trimethylphenoxy)acetic acid] the same measures were 0.4 nM and “A (5<(TRα/TRβ))”.
`Cc1cccc(-c2nc(Cc3c(C)cc(OCc4noc(=O)[nH]4)c(F)c3C)ccc2O)c1F` [Example 60, 3-[(2-fluoro-4-{[6-(2-fluoro-3-methylphenyl)-5-hydroxypyridin-2-yl]methyl}-3,5-dimethylphenoxy)methyl]-1,2,4-oxadiazol-5(4H)-one]: the EC50 in experiment [1] worked out at 0.6 nM. Also, in experiment [2], the “selectivity (TRα/TRβ)” value is listed as “A (5<(TRα/TRβ))”.
For `Cc1cc(C(=O)O)c(C)c(C)c1Cc1ccc(O)c(C2CCCCC2)n1` [Example 42, 4-[(6-cyclohexyl-5-hydroxypyridin-2-yl)methyl]-2,3,5-trimethylbenzoic acid] the same measures were 300 nM and “B (2<(TRα/TRβ)<5)”.
